Source: patent publication US20100285959A1, “HERBICIDAL MIXTURES” (priority 2006, published 2010)

Experiments:
wild buckwheat (POLCO) [1] = test: Test 23 growth chamber, postemergence; type: in vivo, Polygonum convolvulus; settings: 21 DAA
Protocol: (§1) A test was conducted to evaluate the effects on winter barley (HORVW, Hordeum vulgare L.), winter wheat (TRZAW, Triticum aestivum L.), and several weed species of mixtures of Compound 2 with the commercial herbicides (2,4-dichlorophenoxy)acetic acid (2,4-D) and (4-chloro-2-methylphenoxy)acetic acid (MCPA), auxin mimics. […] Plants were treated postemergence at the 2-4 leaf growth stage, and each treatment was replicated three times. […] Plants were watered as needed. […] Results are means of the three replicates.

wild buckwheat (POLCO) [2] = test: Test 21 growth chamber, postemergence; type: in vivo, Polygonum convolvulus; settings: 19 DAA
Protocol: as §1, with “species,” for “species”, “herbicide” for “herbicides”, “(2,4-D), an” for “(2,4-D) and (4-chloro-2-methylphenoxy)acetic acid (MCPA),”, “mimic.” for “mimics.”, “one time.” for “three times.”, “from single” for “means of the three”

redroot pigweed (AMARE) = test: Test 22 growth chamber, postemergence; type: in vivo, Amaranthus retroflexus; settings: 25 DAA
Protocol: as §1, with “stage, except KCHSC, SASKR” for “stage,”, “STEME which were in the 4-8 leaf growth stage. Each” for “each”, “one time.” for “three times.”, “from single” for “means of the three”

winter wheat (TRZAW) = test: Test 22 growth chamber, postemergence; type: in vivo, Triticum aestivum; settings: 25 DAA
Protocol: as §1, with “stage, except KCHSC, SASKR” for “stage,”, “STEME which were in the 4-8 leaf growth stage. Each” for “each”, “one time.” for “three times.”, “from single” for “means of the three”

common chickweed (STEME) [3] = test: Test 21 growth chamber, postemergence; type: in vivo, Stellaria media; settings: 19 DAA
Protocol: as §1, with “species,” for “species”, “herbicide” for “herbicides”, “(2,4-D), an” for “(2,4-D) and (4-chloro-2-methylphenoxy)acetic acid (MCPA),”, “mimic.” for “mimics.”, “one time.” for “three times.”, “from single” for “means of the three”

field violet (VIOAR) = test: Test 21 growth chamber, postemergence; type: in vivo, Viola arvensis; settings: 19 DAA
Protocol: as §1, with “species,” for “species”, “herbicide” for “herbicides”, “(2,4-D), an” for “(2,4-D) and (4-chloro-2-methylphenoxy)acetic acid (MCPA),”, “mimic.” for “mimics.”, “one time.” for “three times.”, “from single” for “means of the three”

[4] = tested on: common lambsquarters (CHEAL); test: Test 21 growth chamber, postemergence; type: in vivo, Chenopodium album; settings: 19 DAA
Protocol: as §1, with “species,” for “species”, “herbicide” for “herbicides”, “(2,4-D), an” for “(2,4-D) and (4-chloro-2-methylphenoxy)acetic acid (MCPA),”, “mimic.” for “mimics.”, “one time.” for “three times.”, “from single” for “means of the three”

[5] = tested on: tropical spiderwort (COMBE); test: Test 12 field trial, preemergence; type: in vivo, Commelina benghalensis; design: scale not given here; settings: Cpd 2 or Cpd 1 62 g a.i./ha, Diuron 2000 g a.i./ha
Source text: (§2) In early-mid spring season, corn seeds (hybrid ‘Pioneer 3041’) were planted 5 cm deep and sugarcane nodes (variety RB-72.454) were planted 10 cm deep in separate plots in a clay soil having 2.6% organic matter and a pH of 5.6. Plots were 24 m long by 1.5 m wide with rows spaced 80 cm (corn) or 140 cm (sugarcane) apart. Corn seeds were spaced 15 cm apart and sugarcane nodes were spaced 10 cm apart within the rows. At the same time, weed seeds were broadcast over the surface of separate plots without a crop, one weed species per plot. The weed plots were rotary tilled to incorporate the weed seeds to a variety of depths. The field was managed using conventional tillage practices.

[6] = tested on: Ipomoea grandiflora (IPOGF); test: Test 12 field trial, preemergence; type: in vivo; design: scale not given here; settings: Cpd 2 or Cpd 1 62 g a.i./ha, Diuron 2000 g a.i./ha
Source text: as §2

wild spikenard (HPYSU) = test: Test 12 field trial, preemergence; type: in vivo; design: scale not given here; settings: Cpd 2 or Cpd 1 62 g a.i./ha, Diuron 2000 g a.i./ha
Source text: as §2

corn (ZEAMD) = test: Test 7 field trial, preemergence; type: in vivo, Zea mays ssp. indentata
Protocol: Plots were 7.6 m long by 3.0 m wide with rows spaced 76 cm apart. Seeds were spaced 15 cm apart within the rows. The field was managed using conventional tillage practices. […] Wild radish was evaluated 14 and 28 days after application. […] Results are the means of the three replicates.

common chickweed (STEME) [7] = test: Test 3 field trial, emerged weeds before corn planting; type: in vivo, Stellaria media; settings: Cpd 2 100, glyphosate 1540, paraquat 1150 g a.i./ha, alone or combined
Source text: Corn seeds (hybrid ‘Pioneer 33J56’) were planted in early spring season, 3.8 cm deep in a silt loam soil having 2.4% organic matter and a pH of 6. Plots were 6.1 m long by 2.7 m wide with rows spaced 91.4 cm apart. The field was managed using no-till practices. […] Compound 2 and paraquat treatments, alone and in combination, also included a surfactant. Glyphosate, alone and with Compound 2, included ammonium sulfate in the treatment mixture. […] The effects on the weeds in the treated plots and untreated control plots were recorded 30, 42, 46 and 68 days after application. Most of the weed species could not be evaluated at every timing. Corn response was not evaluated because the growth was highly variable depending on the efficacy of the weed control treatments. […] Results are the means of the three replicates.

[8] = tested on: common lambsquarters (CHEAL); test: Test 9 field trial, emerged weeds before corn planting; type: in vivo, Chenopodium album; settings: 57 DAA; g a.i./ha: Cpd 2 100, Glyphosate 1540, Paraquat 1150
Protocol: Corn seeds (hybrid ‘Pioneer 34M91 RR’) were planted in mid spring season, about 3.8 cm deep in a silty clay loam soil having a pH of 6.7. Plots were 9.1 m long by 3.0 m. The field was managed using no-till practices. […] Compound 2 and paraquat treatments, alone and in combination, also included a surfactant. Glyphosate, alone and with Compound 2, included ammonium sulfate in the treatment mixture. […] The effects on the weeds in the treated plots and untreated control plots were recorded 7, 14, 23, 30 and 57 days after application. Most of the weed species could not be evaluated at every timing. Corn response was only evaluated 57 days after application. […] Results are the means of the three replicates.

[9] = 2,4-D or MCPA alone 250 g a.i./ha

| SMILES | COMBE Obs ([5]; 15 DAA) | COMBE Obs ([5]; 29 DAA) | COMBE Obs ([5]; 48 DAA) | COMBE Obs ([5]; 61 DAA) | IPOGF Obs ([6]; 15 DAA) | IPOGF Obs ([6]; 29 DAA) | IPOGF Obs ([6]; 48 DAA) | IPOGF Obs ([6]; 61 DAA) | HPYSU Obs (wild spikenard (HPYSU); 15 DAA) | HPYSU Obs (wild spikenard (HPYSU); 29 DAA) | HPYSU Obs (wild spikenard (HPYSU); 48 DAA) | HPYSU Obs (wild spikenard (HPYSU); 61 DAA) | STEME Obs (common chickweed (STEME) [7]; 30 DAA) [%] | STEME Obs (common chickweed (STEME) [7]; 42 DAA) [%] | STEME Obs (common chickweed (STEME) [7]; 46 DAA) [%] | CHEAL Obs [8] [%] | also measured |
| --- | --- | --- | --- | --- | --- | --- | --- | --- | --- | --- | --- | --- | --- | --- | --- | --- | --- |
| O=C(O)COc1ccc(Cl)cc1Cl [2,4-D, (2,4-dichlorophenoxy)acetic acid] | – | – | – | – | – | – | – | – | – | – | – | – | – | – | – | – | Postemergence POLCO Obs (wild buckwheat (POLCO) [1]; [9]): 58; Postemergence POLCO Obs (wild buckwheat (POLCO) [2]; 2,4-D alone 125 g a.i./ha): 20; Postemergence POLCO Obs (wild buckwheat (POLCO) [2]; 2,4-D alone 250 g a.i./ha): 20; Postemergence AMARE Obs (redroot pigweed (AMARE); [9]): 70; Postemergence TRZAW Obs (winter wheat (TRZAW); [9]): 20; Postemergence STEME Obs (common chickweed (STEME) [3]; 2,4-D alone 125 g a.i./ha): 50; Postemergence STEME Obs (common chickweed (STEME) [3]; 2,4-D alone 250 g a.i./ha): 50; Postemergence VIOAR Obs (field violet (VIOAR); 2,4-D alone 125 g a.i./ha): 0; Postemergence VIOAR Obs (field violet (VIOAR); 2,4-D alone 250 g a.i./ha): 20; Postemergence CHEAL Obs ([4]; 2,4-D alone 125 g a.i./ha): 40; Postemergence CHEAL Obs ([4]; 2,4-D alone 250 g a.i./ha): 40 |
| Nc1nc(C2CC2)nc(C(=O)O)c1Cl [Compound 1, 6-amino-5-chloro-2-cyclopropyl-4-pyrimidinecarboxylic acid] | 60 | 40 | 40 | 0 | 60 | 70 | 60 | 40 | 60 | 60 | 70 | 50 | – | – | – | – | – |
| COC(=O)c1nc(C2CC2)nc(N)c1Cl [Compound 2, methyl 6-amino-5-chloro-2-cyclopropyl-4-pyrimidinecarboxylate] | 50 | 40 | 40 | 40 | 50 | 60 | 40 | 40 | 60 | 60 | 50 | 40 | 62 | 37 | 30 | 95 | Postemergence POLCO Obs (wild buckwheat (POLCO) [1]; Cpd 2 alone 4 g a.i./ha): 48; Postemergence POLCO Obs (wild buckwheat (POLCO) [1]; Cpd 2 alone 8 g a.i./ha): 53; Postemergence POLCO Obs (wild buckwheat (POLCO) [1]; Cpd 2 alone 16 g a.i./ha): 55; Postemergence POLCO Obs (wild buckwheat (POLCO) [2]; Cpd 2 alone 16 g a.i./ha): 70; Postemergence AMARE Obs (redroot pigweed (AMARE); Cpd 2 alone 4 g a.i./ha): 55; Postemergence AMARE Obs (redroot pigweed (AMARE); Cpd 2 alone 8 g a.i./ha): 65; Postemergence AMARE Obs (redroot pigweed (AMARE); Cpd 2 alone 16 g a.i./ha): 65; ZEAMD Obs (corn (ZEAMD); hybrid Pioneer 36B10, corn (Zea mays ssp. indentata), in vivo, 62 days after application): 0%; Postemergence TRZAW Obs (winter wheat (TRZAW); Cpd 2 alone 4 g a.i./ha): 30; Postemergence TRZAW Obs (winter wheat (TRZAW); Cpd 2 alone 8 g a.i./ha): 35; Postemergence TRZAW Obs (winter wheat (TRZAW); Cpd 2 alone 16 g a.i./ha): 40; Postemergence STEME Obs (common chickweed (STEME) [3]; Cpd 2 alone 16 g a.i./ha): 65; Postemergence VIOAR Obs (field violet (VIOAR); Cpd 2 alone 16 g a.i./ha): 60; Postemergence CHEAL Obs ([4]; Cpd 2 alone 16 g a.i./ha): 60 |
| O=C(O)CNCP(=O)(O)O [Glyphosate] | – | – | – | – | – | – | – | – | – | – | – | – | 100 | 88 | 100 | 0 | – |
| CCc1cccc(C)c1N(C(=O)CCl)[C@@H](C)COC [S-Metolachlor, S-metolachlor, reference compound] | – | – | – | – | – | – | – | – | – | – | – | – | – | – | – | – | ZEAMD Obs (corn (ZEAMD); 14 DAA, 1000 g a.i./ha): 10%; ZEAMD Obs (corn (ZEAMD); 28 DAA, 1000 g a.i./ha): 8%; ZEAMD Obs (corn (ZEAMD); 62 DAA, 1000 g a.i./ha): 0% |
